Results reported in PMC5011932, “Comparative pharmacokinetics and pharmacodynamics of intravenous artelinate versus artesunate in uncomplicated Plasmodium coatneyi-infected rhesus monkey model” (Malaria Journal, 2016).
Values joined by “and” are separate entries in the source; they are usually repeats but may differ in a detail not shown here. Identical values can stand only once.

Assays:
[1] = design: method as in PMID 2631113; conditions: rats, 1 h following IV administration; cited from earlier work
P. falciparum clone (W2) = experiment: Ex vivo Plasmodium falciparum-based bioassay (BA) of rhesus plasma, effect kinetics (ePD) as DHA equivalents; format: cell-based
Method: Blood was collected for pharmacokinetic/pharmacodynamics (PK/PD) analysis after the first dose only due to rapid clearance of artemisinin derivatives. Heparinized blood was collected at 0, 5, 20, 40 min, 1, 3, and 6 h post-dose and plasma samples were separated within 2 h by centrifugation (1500g, 10 min). Aliquots of samples were made for simultaneous measurement by HPLC [16] and bioassay [14], and stored at −80 °C until analysis.
The plasma anti-malarial activities of the artemisinin derivatives were measured using a previously published method [14]. […] After centrifugation, the supernatant (100 µL) was transferred to a 96-well flat bottom plate. Twofold serial dilutions were then made using heat inactivated pooled control serum (human:rhesus = 1:1). A suspension of malaria (W2 clone) infected erythrocytes was added to each well. The microtitre plate was placed into a gas-tight plexiglass chamber, flushed with a gas mixture of 90 % CO2, 5 % O2, and 5 % N2, and placed into an incubator (37 °C). Following 24 h incubation, the plate was removed from the chamber and pulsed with [^3H]-hypoxanthine solution to each well and incubated for another 18–20 h before harvesting. The incorporation of [^3H]-hypoxanthine by the parasites in each well was determined by counting in a scintillation counter.
A dose–response curve for each plasma sample was constructed by plotting [^3H]-hypoxanthine uptake on the Y-axis against the corresponding dilution factor on the X-axis after logarithmic transformation. The dilution factor value that inhibits parasite growth by 50 % (DF50) of each plasma sample was determined.

[2] = rhesus monkey, in vivo
Method: (§1) These doses were chosen as the minimal effective doses (from previous model development and validation studies, unpublished data) and blood was collected for pharmacokinetic analysis. After a week wash-out and recovery period, P. coatneyi (1 mL of >50,000 parasitized RBCs per microlitre or 5 × 10^6 RBC with a 1 % parasitaemia) were inoculated from a donor monkey into all the monkeys. The treatment was initiated at day 6 after inoculation at a parasitaemia ≥3 % or >200,000 parasites μL^−1 when the cohort of animals was minimally symptomatic. Drugs were given for 3 days with a loading dose initially followed by ½ of the first dose on the 2nd and 3rd days.
(§2) Blood was collected for pharmacokinetic/pharmacodynamics (PK/PD) analysis after the first dose only due to rapid clearance of artemisinin derivatives. Heparinized blood was collected at 0, 5, 20, 40 min, 1, 3, and 6 h post-dose and plasma samples were separated within 2 h by centrifugation (1500g, 10 min). Aliquots of samples were made for simultaneous measurement by HPLC [16] and bioassay [14], and stored at −80 °C until analysis. All glassware was silanized before use with a 0.5 % aqueous solution (v/v) of Pierce Aquasil (Rockford, IL, USA) according to the manufacturer’s recommended procedure. Solid-phase extraction was performed on C-18 elution cartridge (3.0 ml, J.T. Baker Co.) using a VAC ELUTE SPS24 sample processing station (Analytichem International, Harbour City, CA, USA). The cartridge was preconditioned by sequential washing with 2.5 ml acetonitrile, 2.5 ml methanol and 2.5 ml water. One ml of distilled water was added to the cartridge before adding plasma sample (0.5 ml). Then, the cartridge was washed with 2.5 ml distilled water, 2.5 ml of 0.05 % H3PO4 (pH 4.5) and 2.5 ml of 20 % acetonitrile and completely dried by closing the vacuum for 15 min. The analytes were collected by eluting with 0.5 ml methanol three times and then with 0.5 ml 90:10 n-butyl chloride: ethyl acetate twice. The organic phases were pooled. The combined organic phases were then evaporated to dryness under a stream of nitrogen at room temperature. Extraction residues were reconstituted with 50:50 ethanol: water (0.3 ml), at least 16 h before injection. The injection volume was 100 µl for all samples.
(§3) The plasma concentration of parent drugs, AL and AS, and their primary metabolites, DHA and 2-hydroxyartelinate (OHAL) respectively, were measured by HPLC with electrochemical detection in reductive mode (HPLC-ECD) [16], which was the only method for artemisinin compounds then (Additional files 1 and 2).
(§4) HPLC with reductive electrochemical detection was performed using a model BAS 200B liquid chromatography (Bioanalytical Systems, Inc., West Lafayette, Indiana, USA). A Nova-Pak® C18 (3.9 × 150 mm, Waters Corporation, Milford, MA, USA) was used with 40 % acetonitrile in sodium acetate buffer (pH 3.6) as mobile phase. Detection was performed using a thin dual-layer glassy carbon electrode run in parallel mode at a potential of −1.0 V versus Ag/AgCl. The system was operated at the following temperatures: mobile phase 35 °C, column and detector oven 30 °C, cell 31 °C with the flow rate of 1.5 mL min^−1. Artemisinin (ART) was used as an internal standard. Samples were injected via Gilson model 231 XL sampling injector equipped with a 100 µL loop, a Gilson model 401 dilutor/pipettor, a sampler controller keypad (Gilson Medical Electronics, Middleton, WI, USA), and a Valco electrically actuated switching valve (Valco Instrument Co. Inc) was used. This system automatically deoxygenated and injected sample, which permits the high sample throughput associated with automated injection. Data were acquired and analysed using a Millennium^32 Chromatography Manager (Waters Corporation, Milford, MA, USA).

in vivo = conditions: rhesus monkey; for AUC(0-t) / AUC(0-inf) / clearance / Cmax / half-life: iv, 8 mg/kg; for clearance: Cl
Method: as §1, §2, §3, §4

Plasmodium coatneyi = experiment: In vivo pharmacodynamics (parasite clearance) in uncomplicated P. coatneyi-infected splenectomized rhesus monkey model
Method: Twenty-two adult colony-born, Indian-origin rhesus macaques (Macaca mulatta) naïve monkeys were splenectomized and recovered well more than 1 month prior to entering the study. […] Twenty-two animals were randomized to two experiments of 11 monkeys. […] The control monkeys received intramuscular quinine treatment and the experimental animals received intravenous artemisinin candidates.
Based on our previous model validation, blood smears were performed to detect malaria parasites starting prior to inoculation on day 0 and continued daily (0700–0800 h). The monkeys were physically restrained in the squeeze cage restraint apparatus and approximately 0.1–0.2 ml whole blood was collected from each monkey by lancet puncture of the lateral auricular vein. Thick and thin smears were made on the same microscope glass slide and subsequently fixed in methanol and stained with Giemsa. When the smears were positive, white blood cell count (WBC) and/or red blood cell count (RBC) were also performed using automated haematology analyzer Sysmex K800 to calculate parasite density. Haematocrits were checked as needed. At study days 6–12, additional blood samples were obtained from all animals in the afternoon (1500–1600 h) to monitor parasitaemia levels. Daily blood smears were continued until two consecutive days with negative smears. Then the smear monitoring schedule was reduced to two times weekly for 2 weeks and then weekly for 6 weeks after completion of the last treatment.
Blood smear staining and parasitaemia determination took about 2 h. […] The control monkey received quinine treatment and the ten experimental animals received intravenous artemisinin derivative candidate.
After a week wash-out and recovery period, P. coatneyi (1 mL of >50,000 parasitized RBCs per microlitre or 5 × 10^6 RBC with a 1 % parasitaemia) were inoculated from a donor monkey into all the monkeys. The treatment was initiated at day 6 after inoculation at a parasitaemia ≥3 % or >200,000 parasites μL^−1 when the cohort of animals was minimally symptomatic. Drugs were given for 3 days with a loading dose initially followed by ½ of the first dose on the 2nd and 3rd days.
Blood smear were collected once daily in the morning. Once positive parasitaemia was observed and reached 2000 parasites μL^−1, blood smears were collected twice, in the morning and afternoon. Blood for slides preparation were collected from ear for thick and thin smear preparation. Blood films on glass slides were air dried, fixed with 100 % methanol, stained with Giemsa, and read under ×100 magnification oil emersion for parasite determination.
First, a thick smear was performed for parasite detection by reading the slides at least 50 fields under ×100 magnification oil emersion.

Plasmodium falciparum = system: Plasmodium falciparum; design: method as in Newton, 2000 [22]; conditions: Human, 2 mg kg^−1 IV AS, ref Newton, 2000 [22], cited from earlier work
[3] = DHA equivalents, infected rhesus

C[C@H]1[C@H](OC(=O)CCC(=O)O)O[C@@H]2O[C@@]3(C)CC[C@H]4[C@H](C)CC[C@@H]1[C@@]24OO3 [IV AS, Artesunic acid]
tissue levels [1]: high levels of AS were found in brain, fat, intestine and serum | Antimalarial activity expressed as DHA equi., mean (P. falciparum clone (W2); 0.08 h, healthy rhesus): 17.94 µmol/L | Antimalarial activity expressed as DHA equi., mean (P. falciparum clone (W2); 0.08 h, infected rhesus): 22.45 µmol/L | Antimalarial activity expressed as DHA equi., mean (P. falciparum clone (W2); 0.33 h, healthy rhesus): 5.77 µmol/L | Antimalarial activity expressed as DHA equi., mean (P. falciparum clone (W2); 0.33 h, infected rhesus): 4.28 µmol/L | Antimalarial activity expressed as DHA equi., mean (P. falciparum clone (W2); 0.67 h, healthy rhesus): 3.16 µmol/L | Antimalarial activity expressed as DHA equi., mean (P. falciparum clone (W2); 0.67 h, infected rhesus): 3.19 µmol/L | Antimalarial activity expressed as DHA equi., mean (P. falciparum clone (W2); 1.0 h, healthy rhesus): 1.75 µmol/L | Antimalarial activity expressed as DHA equi., mean (P. falciparum clone (W2); 1.0 h, infected rhesus): 1.58 µmol/L | Antimalarial activity expressed as DHA equi., mean (P. falciparum clone (W2); 3.0 h, healthy rhesus): 0.22 µmol/L | Antimalarial activity expressed as DHA equi., mean (P. falciparum clone (W2); 3.0 h, infected rhesus): 0.12 µmol/L | Antimalarial activity expressed as DHA equi., mean (P. falciparum clone (W2); 6.0 h, healthy rhesus): 0 µmol/L | Antimalarial activity expressed as DHA equi., mean (P. falciparum clone (W2); 6.0 h, infected rhesus): 0 µmol/L | AUC0–20, ePD (P. falciparum clone (W2); [3]): 242 µM·min | AUC0–∞, ePD (P. falciparum clone (W2); [3]): 485 µM·min | Bioactivity %AUC20 (P. falciparum clone (W2); mean, healthy rhesus): 48.3% | Bioactivity Cl (P. falciparum clone (W2); mean, healthy rhesus): 3.07 L hr^-1 kg ^-1 | Bioactivity %AUC20 (P. falciparum clone (W2); mean, infected rhesus): 55.0% | Bioactivity (DHA equi.) AUC(0-inf) (P. falciparum clone (W2); mean, infected rhesus): 476 (346–607) µmole min L^-1 | Bioactivity Cl (P. falciparum clone (W2); mean, infected rhesus): 3.18 (2.25–4.11) L hr^-1 kg ^-1 | Bioactivity Cl (P. falciparum clone (W2); mean, infected rhesus, listed as I.V. AS/Na): 3.18 L hr^-1 kg ^-1 | t1/2, metabolite (M) [2]: 31.1 min | Cl ([2]; iv, 8 mg/kg): 4.38 L hr^-1 kg ^-1 | concentration at 1 h (in vivo; Plasma concentration, mean): 0.05 µM | concentration at 3 h (in vivo; Plasma concentration, mean): 0 nM | concentration at 6 h (in vivo; Plasma concentration, mean): 0 nM | AUC(0-t) (in vivo; AUC 0-20): 4.78 µM·h | AUC(0-t) (in vivo; AUC0–20, parent compound (P)): 4.8 µM·h | AUC(0-t) (in vivo; AUC0–20, parent drug): 4.8 µM·h | AUC(0-inf) (in vivo; AUC0–∞, parent compound (P)): 4.8 µM·h | AUC(0-inf) (in vivo; AUC0–∞, parent drug): 4.8 µM·h | AUC(0-inf) (in vivo; AUC(0-inf)): 5.2 µM·h | clearance (in vivo): 78.3 mL/min/kg | clearance (in vivo; parent): 72.3 mL/min/kg | Cmax (in vivo; parent compound (P)): 28.2 µM | Cmax (in vivo; parent drug): 28.2 µM | half-life (in vivo; t1/2, parent compound (P)): 3.47 min | half-life (in vivo; t 1/2, z): 4.17 min | Parasite/µL, mean (Plasmodium coatneyi; 0.29 day post-dose): 32,080 Parasite/µL | Parasite Reduction (Plasmodium coatneyi; 0.29 day post-dose, IV AS experiment (mean; IM QN = its control monkey)): 88.6% | Parasite/µL, mean (Plasmodium coatneyi; 1.00 day post-dose): 63,163 Parasite/µL | Parasite Reduction (Plasmodium coatneyi; 1.00 day post-dose, IV AS experiment): 81.1% | Parasite/µL, mean (Plasmodium coatneyi; 1.29 day post-dose): 9,364 Parasite/µL | Parasite Reduction (Plasmodium coatneyi; 1.29 day post-dose, IV AS experiment): 97.1% | Parasite/µL, mean (Plasmodium coatneyi; 2.00 day post-dose): 1,383 Parasite/µL | Parasite Reduction (Plasmodium coatneyi; 2.00 day post-dose, IV AS experiment): 99.4% | Parasite/µL, mean (Plasmodium coatneyi; 2.29 day post-dose): 345 Parasite/µL | Parasite Reduction (Plasmodium coatneyi; 2.29 day post-dose, IV AS experiment): 99.8% | Parasite/µL, mean (Plasmodium coatneyi; 3.00 day post-dose): 96 Parasite/µL | Parasite Reduction (Plasmodium coatneyi; 3.00 day post-dose, IV AS experiment): 100.0% | Parasite Reduction (Plasmodium coatneyi; 3.29 day post-dose, IV AS experiment): 99.9% | Parasite/µL, mean (Plasmodium coatneyi; 4.00 day post-dose): 66 Parasite/µL | Parasite Reduction (Plasmodium coatneyi; 4.00 day post-dose, IV AS experiment): 100.0% | Parasite/µL, mean (Plasmodium coatneyi; 4.29 day post-dose): 87 Parasite/µL | Parasite Reduction (Plasmodium coatneyi; 4.29 day post-dose, IV AS experiment): 100.0% | Parasite/µL, mean (Plasmodium coatneyi; 5.00 day post-dose): 60 Parasite/µL | Parasite Reduction (Plasmodium coatneyi; 5.00 day post-dose, IV AS experiment): 100.0% | Parasite/µL, mean (Plasmodium coatneyi; 5.29 day post-dose): 31 Parasite/µL | Parasite Reduction (Plasmodium coatneyi; 5.29 day post-dose, IV AS experiment): 100.0% | Parasite/µL, mean (Plasmodium coatneyi; 6.00 day post-dose): 13 Parasite/µL | Parasite Reduction (Plasmodium coatneyi; 6.00 day post-dose, IV AS experiment): 100.0% | Parasite/µL, mean (Plasmodium coatneyi; 6.29 day post-dose): 23 Parasite/µL | Parasite Reduction (Plasmodium coatneyi; 6.29 day post-dose, IV AS experiment): 100.0% | Parasite/µL, mean (Plasmodium coatneyi; 7.00 day post-dose): 15 Parasite/µL | Parasite Reduction (Plasmodium coatneyi; 7.00 day post-dose, IV AS experiment): 100.0% | Parasite/µL, mean (Plasmodium coatneyi; 8.00 day post-dose): 4 Parasite/µL | Parasite Reduction (Plasmodium coatneyi; 8.00 day post-dose, IV AS experiment): 100.0% | Parasite/µL, mean (Plasmodium coatneyi; 9.00 day post-dose): 2 Parasite/µL | Parasite Reduction (Plasmodium coatneyi; 9.00 day post-dose, IV AS experiment): 100.0% | Parasite/µL, mean (Plasmodium coatneyi; 10.00 day post-dose): 0 Parasite/µL | Parasite Reduction (Plasmodium coatneyi; 10.00 day post-dose, IV AS experiment): 100.0% | PCT of individual animals (Plasmodium coatneyi; IV AL: the only two determinable, IV AS: the two most rapid): 4.0 days and 5.0 days | Recrudescence, median (range, n) (Plasmodium coatneyi; in vivo): 13 (9–19, 10) days | R, Day (recrudescence day), mean (Plasmodium coatneyi; n 2 IV AL, n 10 IV AS): 13 days | PC50 (Plasmodium coatneyi; range in evaluable animals (4 of 8 IV AL, 3 of 10 IV AS)): 0.32 to 5.88 h | Median PCT of the remaining eight monkeys (Plasmodium coatneyi; without the two most rapid): 8.0 days | AUC (ePD) (Plasmodium falciparum; mean (95 % CI)): 636 (524–748) µmol min L^−1 | Cl (ePD) (Plasmodium falciparum): 0.83 (0.70–0.96) L h^−1 kg^−1
